We go through eleven compounds from US5643601A, “Phospholipid-and fluorocarbon-containing cosmetic” (Lancaster Group AG, priority 1992, dated 1997).

Read-outs that look alike come from different tables or passages of the source.

Data set [1] is described as follows: Vapour pressure of fluorocarbons (Table 1). Type of data set: physicochemical.
Description: (§2) Some selected fluorocarbons and their O2 solubility, their vapour pressure and their critical solubility temperature are shown in Table 1.
The nature of data set [2]: Critical solubility temperature (CST) of fluorocarbons in n-hexane. An excerpt: (§1) The fluorocarbons can be selected for O2 solubility, partial vapour pressure and lipid solubility according to the specific intended application. The critical solubility temperature of the fluorocarbons (CST) in n-hexane correlates with their solubility in lipids, e.g. cell membranes, and is thus a measure of the rate of release through the skin. […] It is thus possible by mixing various fluorocarbons to set defined CST values which are often not realisable by means of individual compounds.
Starting from these values, the desired characteristics for the penetration of the skin with the aid of a cosmetic composition can be selected for mixtures of fluorocarbons.

Data set [3] can be described thus: O2 solubility of fluorocarbons (Table 1). Type of data set: physicochemical.
Description: as §2
Data set [4] has as its system skin. In words: Release of fluorocarbons through the skin.
Description: as §1

The test system of data set [5] is skin. The conditions noted are these: in words; cited from earlier work.

For the compound `FC(F)(F)C(F)(F)C(F)(F)C(F)(F)C=CC(F)(F)C(F)(F)C(F)(F)C(F)(F)F` [Bis-F(butyl)ethene], the “Vapour Pressure P37° C.” value in data set [1] (37° C.) is listed as 12.6 mm Hg. In data set [2] (in n-hexane), the “CST (critical solubility temperature)” value was 22.5 °C. Besides, the O2 solubility in data set [3] is recorded as 50 ml of O2 /100 ml of Fc.
In the same order, the values of `FC1(F)OC(F)(F)C(F)(F)N(C(F)(F)C2(F)C(F)(F)C(F)(F)C(F)(F)C(F)(F)C2(F)F)C1(F)F` [F-cyclohexylmethyl-morpholine] are 4 mm Hg, 38.5 °C and 42 ml of O2 /100 ml of Fc.
In the same order, the values of `FC(F)(F)C(F)(F)C(F)(F)C(F)(F)C(F)(F)C(F)(F)OC(F)(F)C(F)(F)C(F)(F)C(F)(F)C(F)(F)C(F)(F)F` [F-dihexyl ether] are 2 mm Hg, 59 °C and 45 ml of O2 /100 ml of Fc.
Regarding `FC(F)(F)C(F)(F)C(F)(F)C(F)(F)C(F)(F)C(F)(F)F` [F-hexane], the “Vapour Pressure P37° C.” value in data set [1] came out at 414 mm Hg. For the same compound, in data set [3], the O2 solubility is given as 58 ml of O2 /100 ml of Fc.
As for `FC(F)(F)C1(F)C(F)(F)C(F)(F)C(F)(F)C(F)(F)C1(F)F` [F-methylcyclohexane], in data set [1] (37° C.), the “Vapour Pressure P37° C.” value was determined as 180 mm Hg. In data set [2] (in n-hexane), the “CST (critical solubility temperature)” value was 8.2 °C. In data set [3], the O2 solubility was 57 ml of O2 /100 ml of Fc.
Take `FC(F)(F)C(F)(F)C(F)(F)C(F)(F)N(C(F)(F)C(F)(F)C(F)(F)C(F)(F)F)C(F)(F)C(F)(F)C(F)(F)C(F)(F)F` [F-tributylamine]: the “rate of release through the skin / half-life of release” value in the data set with skin [4] (in words, correlated with CST) was “high half-life of release”. In data set [1] (37° C.), the “Vapour Pressure P37° C.” value amounted to 1 mm Hg. Further, in data set [2] (in n-hexane), the “CST (critical solubility temperature)” value was 59 °C. Besides, the O2 solubility in data set [3] is on record as 40 ml of O2 /100 ml of Fc.
`FC(F)(F)C(F)(F)C(F)(F)N(C(F)(F)C(F)(F)C(F)(F)F)C(F)(F)C(F)(F)C(F)(F)F` [F-tripropylamine]: in data set [1] (37° C.), the “Vapour Pressure P37° C.” value turned out to be 18.5 mm Hg. Further, the “CST (critical solubility temperature)” value in data set [2] was 43 °C. In addition, the O2 solubility in data set [3] is 45 ml of O2 /100 ml of Fc.
On to `FC(F)(F)C(F)(F)C(F)(F)C(F)(F)C1(F)OC(F)(F)C(F)(F)C1(F)F` (stereo not drawn) [Perfluorobutyl-tetrahydrofuran], for which the “Vapour Pressure P37° C.” value in data set [1] (37° C.) is 51 mm Hg. Further, in data set [2] (in n-hexane), the “CST (critical solubility temperature)” value is 29 °C. Further, the O2 solubility in data set [3] is 52 ml of O2 /100 ml of Fc.
As for `FC1(F)C(F)(F)C(F)(F)C2(F)C(F)(F)C(F)(F)C(F)(F)C(F)(F)C2(F)C1(F)F` (stereo not drawn) [Perfluorodecalin], the “rate of release through the skin / half-life of release” value in the data set with skin [4] is “released relatively rapidly”. The “Vapour Pressure P37° C.” value in data set [1] (37° C.) was found to be 12.5 mm Hg. The “CST (critical solubility temperature)” value in data set [2] came out at 22 °C. Moreover, the O2 solubility in data set [3] is 40 ml of O2 /100 ml of Fc.
With `FC(F)(F)C(F)(F)C(F)(F)C(F)(F)C(F)(F)C(F)(F)C(F)(F)C(F)(F)Br` [Perfluorooctyl bromide], in the data set with skin [4], the “rate of release through the skin / half-life of release” value is listed as “released relatively rapidly”. Also, in data set [1] (37° C.), the “Vapour Pressure P37° C.” value was 14 mm Hg. In addition, in data set [2], the “CST (critical solubility temperature)” value was -24.5 °C. Moreover, in data set [3], the O2 solubility was 50 ml of O2 /100 ml of Fc.
As to `OO` [hydrogen peroxide], the “skin irritation / side effects” value in the data set with skin [5] is recorded as “considerable side effects such as the skin irritations”.
